According to ChEMBL document CHEMBL1156216, “Amide-based inhibitors of p38alpha MAP kinase. Part 2: design, synthesis and SAR of potent N-pyrimidyl amides” (Bioorg Med Chem Lett, 2010):

What was measured:
Blood = assay: Antiinflammatory activity against LPS-induced TNFalpha production in human diluted whole blood administered 15 mins before LPS treatment after 2 hrs by ELISA; format: functional, tissue-based
[1] = molecular target: Mitogen-activated protein kinase 14 (Homo sapiens, UniProt Q16539); assay: Inhibition of human p38alpha assessed as gamma-[32P]ATP incorporation after 60 mins by scintillation counting
Chain of Mitogen-activated protein kinase 14 (Q16539 whole entry): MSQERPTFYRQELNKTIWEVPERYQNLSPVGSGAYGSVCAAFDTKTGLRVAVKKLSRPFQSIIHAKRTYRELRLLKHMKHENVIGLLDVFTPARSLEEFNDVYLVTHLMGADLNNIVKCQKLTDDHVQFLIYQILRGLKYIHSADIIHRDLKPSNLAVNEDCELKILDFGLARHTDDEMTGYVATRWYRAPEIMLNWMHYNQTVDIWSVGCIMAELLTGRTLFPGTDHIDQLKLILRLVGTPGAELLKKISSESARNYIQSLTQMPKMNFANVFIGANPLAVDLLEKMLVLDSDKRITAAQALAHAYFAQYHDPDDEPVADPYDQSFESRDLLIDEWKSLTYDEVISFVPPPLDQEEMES

Cytochrome P450 3A4 = Cytochrome P450 3A4 (Homo sapiens, UniProt P08684); assay: Inhibition of CYP3A4 after 30 mins by fluorescence assay; format: ADME; settings: read-out: INH
Chain of Cytochrome P450 3A4 (P08684 whole entry): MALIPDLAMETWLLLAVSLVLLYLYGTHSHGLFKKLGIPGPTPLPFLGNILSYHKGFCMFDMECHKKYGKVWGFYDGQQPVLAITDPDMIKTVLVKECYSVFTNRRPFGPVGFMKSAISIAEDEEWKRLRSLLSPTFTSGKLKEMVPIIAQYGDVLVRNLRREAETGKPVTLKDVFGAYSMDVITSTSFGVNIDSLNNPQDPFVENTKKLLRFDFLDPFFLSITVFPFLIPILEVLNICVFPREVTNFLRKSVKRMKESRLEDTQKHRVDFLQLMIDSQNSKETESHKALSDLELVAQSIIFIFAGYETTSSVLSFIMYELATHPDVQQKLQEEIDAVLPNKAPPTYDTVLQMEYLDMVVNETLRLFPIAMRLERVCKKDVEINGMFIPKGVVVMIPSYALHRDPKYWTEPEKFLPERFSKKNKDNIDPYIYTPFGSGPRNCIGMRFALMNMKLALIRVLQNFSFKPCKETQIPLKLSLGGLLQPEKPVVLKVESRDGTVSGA

Row | Compound | IC50 (Blood) [nM] | IC50 [1] [nM] | IC50 (Cytochrome P450 3A4) [nM]
1 | COC[C@H](C)Nc1nccc(N(CC2CCNCC2)C(=O)c2ccc3c(c2)CCO3)n1 | 460 | 316 | 2020
2 | CCN(C(=O)c1ccc2c(c1)CCO2)c1ccnc(N[C@@H](C)c2ccccc2)n1 | 387 | 17 | –
3 | CC(C)CN(C(=O)c1ccc2c(c1)CCO2)c1ccnc(N[C@@H](C)c2ccccc2)n1 | 2090 | 462 | –
4 | O=C(c1ccc2c(c1)CCO2)N(CC1CCNCC1)c1ccnc(NC2CC2)n1 | 50 | 600 | 340
5 | CCN(C(=O)c1ccc2c(c1)OCO2)c1ccnc(N[C@@H](C)c2ccccc2)n1 | > 1000 | 164 | –
6 | CCN(C(=O)c1cccc(Cl)c1)c1ccnc(N[C@@H](C)c2ccccc2)n1 | 533 | 81 | –
7 | COCCN(C(=O)c1ccc2c(c1)CCO2)c1ccnc(N[C@@H](C)c2ccccc2)n1 | > 10000 | 345 | –
8 | CC(C)Nc1nccc(N(CCCCN)C(=O)c2ccc3c(c2)CCO3)n1 | 90 | 17 | 3120
9 | CCC(COC)Nc1nccc(N(CC2CCNCC2)C(=O)c2ccc3c(c2)CCO3)n1 (stereo not drawn) | 112 | 530 | 367
10 | CCN(C(=O)c1ccccc1Cl)c1ccnc(N[C@@H](C)c2ccccc2)n1 | > 1000 | 267 | –
11 | NCCCCN(C(=O)c1ccc2c(c1)CCO2)c1ccnc(NC2CCC(O)CC2)n1 (stereo not drawn) | 865 | 11 | > 20000
12 | CCN(C(=O)c1cn(C)c2ccccc12)c1ccnc(N[C@@H](C)c2ccccc2)n1 | > 10000 | 154 | –
13 | CCN(C(=O)c1ccc2ccccc2c1)c1ccnc(N[C@@H](C)c2ccccc2)n1 | 187 | 64 | –
14 | NC1CCC(Nc2nccc(N(CC3CCNCC3)C(=O)c3ccc4c(c3)CCO4)n2)CC1 (stereo not drawn) | > 10000 | 400 | > 20000
15 | CCN(C(=O)c1ccc(F)c(C)c1)c1ccnc(N[C@@H](C)c2ccccc2)n1 | 178 | 39 | –
16 | C[C@H](Nc1nccc(N(CCCN)C(=O)c2ccc3c(c2)CCO3)n1)c1ccccc1 | – | > 10000 | –

Row | Compound | IC50 (Blood) [nM] | IC50 [1] [nM] | IC50 (Cytochrome P450 3A4) [nM]
17 | CCN(C(=O)c1ccccc1)c1ccnc(N[C@@H](C)c2ccccc2)n1 | > 10000 | 193 | –
18 | C[C@@H](CO)Nc1nccc(N(CCCCN)C(=O)c2ccc3c(c2)CCO3)n1 | 2940 | 310 | 11700
19 | C[C@H](Nc1nccc(N(CC2CCCCN2)C(=O)c2ccc3c(c2)CCO3)n1)c1ccccc1 (stereo partly drawn) | – | > 10000 | –
20 | CCN(C(=O)c1ccc(C)c(C)c1)c1ccnc(N[C@@H](C)c2ccccc2)n1 | 143 | 91 | –
21 | CC(C)(CO)Nc1nccc(N(CC2CCNCC2)C(=O)c2ccc3c(c2)CCO3)n1 | > 10000 | 3040 | 1540
22 | O=C(c1ccc2c(c1)CCO2)N(CC1CCNCC1)c1ccnc(NC2CCC(O)CC2)n1 (stereo not drawn) | 3290 | 360 | > 20000
23 | C[C@H](Nc1nccc(N(CC2CC2)C(=O)c2ccc3c(c2)CCO3)n1)c1ccccc1 | 704 | 165 | –
24 | C[C@H](Nc1nccc(N(CC2CCOCC2)C(=O)c2ccc3c(c2)CCO3)n1)c1ccccc1 | > 10000 | 158 | –
25 | CCN(C(=O)c1cccc(C(F)(F)F)c1)c1ccnc(N[C@@H](C)c2ccccc2)n1 | > 1000 | 64 | –
26 | CCN(C(=O)c1ccc(Cl)cc1)c1ccnc(N[C@@H](C)c2ccccc2)n1 | > 10000 | 313 | –
27 | COC[C@H](C)Nc1nccc(N(CCCCN)C(=O)c2ccc3c(c2)CCO3)n1 | 48 | 25 | 2650
28 | CC(C)Nc1nccc(N(CC2CCNCC2)C(=O)c2ccc3c(c2)CCO3)n1 | 88 | 24 | 2900
29 | C[C@H](Nc1nccc(N(CC2CCNCC2)C(=O)c2ccc3c(c2)CCO3)n1)c1ccccc1 | 15 | 54 | 94
30 | CCN(C(=O)c1ccc2c(c1)CCCC2)c1ccnc(N[C@@H](C)c2ccccc2)n1 | > 1000 | 180 | –
31 | C[C@H](Nc1nccc(N(CCCS(C)(=O)=O)C(=O)c2ccc3c(c2)CCO3)n1)c1ccccc1 | 564 | 72 | –

Second part, led by results:

Row | IC50 (Blood) [nM] | IC50 [1] [nM] | Compound | IC50 (Cytochrome P450 3A4) [nM]
32 | 140 | 13 | CCN(C(=O)c1cccc(C)c1)c1ccnc(N[C@@H](C)c2ccccc2)n1 | –
33 | 9 | 4 | C[C@H](Nc1nccc(N(CCCCN)C(=O)c2ccc3c(c2)CCO3)n1)c1ccccc1 | 180
34 | 524 | 711 | C[C@H](Nc1nccc(N(CC2CCN(C(N)=O)CC2)C(=O)c2ccc3c(c2)CCO3)n1)c1ccccc1 | –
35 | 152 | 65 | CCc1cccc(C(=O)N(CC)c2ccnc(N[C@@H](C)c3ccccc3)n2)c1 | –
36 | > 10000 | 673 | C[C@H](Nc1nccc(N(CC2CCN(S(N)(=O)=O)CC2)C(=O)c2ccc3c(c2)CCO3)n1)c1ccccc1 | –
37 | > 10000 | 179 | CCN(C(=O)c1cc2ccccc2o1)c1ccnc(N[C@@H](C)c2ccccc2)n1 | –
38 | > 1000 | – | CCN(C(=O)c1ccc2ccccc2c1)c1ccnc(N[C@@H](C)c2ccccc2)c1 | –
39 | – | > 10000 | C[C@H](Nc1nccc(N(CC2CCCNC2)C(=O)c2ccc3c(c2)CCO3)n1)c1ccccc1 (stereo partly drawn) | –
40 | 400 | 81 | CCN(C(=O)c1cccc(C)c1C)c1ccnc(N[C@@H](C)c2ccccc2)n1 | –
41 | 130 | 96 | C[C@H](Nc1nccc(N(CCCCO)C(=O)c2ccc3c(c2)CCO3)n1)c1ccccc1 | –
42 | 829 | 90 | CCN(C(=O)c1cccc2c1OCC2)c1ccnc(N[C@@H](C)c2ccccc2)n1 | –
43 | 349 | 104 | CCN(C(=O)c1cccc(C2CC2)c1)c1ccnc(N[C@@H](C)c2ccccc2)n1 | –
44 | 313 | 71 | CCN(C(=O)c1ccc2occc2c1)c1ccnc(N[C@@H](C)c2ccccc2)n1 | –
45 | 58 | 26 | CCN(C(=O)c1cc(C)ccc1F)c1ccnc(N[C@@H](C)c2ccccc2)n1 | –
46 | > 1000 | 188 | CCN(C(=O)c1csc2ccccc12)c1ccnc(N[C@@H](C)c2ccccc2)n1 | –
47 | 300 | 45 | CCN(C(=O)c1ccc2c(c1)CCC2)c1ccnc(N[C@@H](C)c2ccccc2)n1 | –
